Measured values taken from US9228991B2, “Methods and kits for detection of drugs” (RAMOT AT TEL-AVIV UNIVERSITY LTD., priority 2010, dated 2016).
Where two headings read alike, the source gives them in different places.

How the values were obtained:
[1] = cited from earlier work
[2] = GHB solubility / precipitation in anti-solvents
[3] = cited from earlier work; remark: listed apart in the source

| Structure (SMILES) | Physical Effect ([1]; ketamine dose 10-80 mg (low), <0.01-0.08% in drink) | Physical Effect ([1]; ketamine dose 130-250 mg (high), 0.13-0.25% in drink) | Physical Effect ([1]; ketamine dose >250 mg (mega), >0.25% in drink) | solubility in anti-solvent ([2]; acetonitrile) | solubility in anti-solvent ([2]; pure ethanol) | Physical Effect ([3]; GHB dose 4-8 (very high), 4-8% in drink) | dose at which a dangerous overdose can occur ([3]; depending on body weight and metabolism) | heavy dose ([3]; in vivo) |
| --- | --- | --- | --- | --- | --- | --- | --- | --- |
| CNC1(c2ccccc2Cl)CCCCC1=O (centres unmarked) [ketamine] | Mild euphoria | K-hole, near comatose state | Powerful deep sleep. | – | – | – | – | – |
| O=C(O)CCCO [GHB, gamma-hydroxybutyrate] | – | – | – | mostly insoluble | mostly insoluble | Powerful deep sleep. | two | approximately 2.5 grams |
